These results are taken from patent US11186534B2, “Derivatives of sulindac can protect normal cells against oxidative damage” (University of South Alabama, priority 2017, dated 2021).

The test system of test [1] is PDE isozymes 1-11 (except PDE6). In words: IMAP fluorescence polarization PDE assay, panel of PDE isozymes. To be noted: 25 μM; FIG. 5C. It counts as biochemical. On the procedure:
(§1) PDE activity was measured using the IMAP fluorescence polarization PDE assay (Molecular Devices) in which the binding of hydrolyzed fluorescent cyclic nucleotide substrate to the IMAP reagent increases fluorescence polarization. Each well of a 96-well nonbinding plate contained 0.25 mg/mL of recombinant enzyme preparations. Enzymes were incubated with COMPOUND 9 or vehicle (DMSO) for 30 min at 30° C. before the addition of a substrate mixture containing 25 nmol/L of fluorescein-cGMP. The DMSO final concentration for each experiment was 2%. After 90 min of incubation at 30° C., the reaction was terminated by the addition of binding reagent. The maximum Fluorescence polarization was measured using a Synergy4 (BioTek) plate reader.

Another test deals with T1, human recombinant COX-2 (Homo sapiens, UniProt P35354).
T1 construct: purchased Cayman Chemical 700100
T1 sequence (P35354 18-604): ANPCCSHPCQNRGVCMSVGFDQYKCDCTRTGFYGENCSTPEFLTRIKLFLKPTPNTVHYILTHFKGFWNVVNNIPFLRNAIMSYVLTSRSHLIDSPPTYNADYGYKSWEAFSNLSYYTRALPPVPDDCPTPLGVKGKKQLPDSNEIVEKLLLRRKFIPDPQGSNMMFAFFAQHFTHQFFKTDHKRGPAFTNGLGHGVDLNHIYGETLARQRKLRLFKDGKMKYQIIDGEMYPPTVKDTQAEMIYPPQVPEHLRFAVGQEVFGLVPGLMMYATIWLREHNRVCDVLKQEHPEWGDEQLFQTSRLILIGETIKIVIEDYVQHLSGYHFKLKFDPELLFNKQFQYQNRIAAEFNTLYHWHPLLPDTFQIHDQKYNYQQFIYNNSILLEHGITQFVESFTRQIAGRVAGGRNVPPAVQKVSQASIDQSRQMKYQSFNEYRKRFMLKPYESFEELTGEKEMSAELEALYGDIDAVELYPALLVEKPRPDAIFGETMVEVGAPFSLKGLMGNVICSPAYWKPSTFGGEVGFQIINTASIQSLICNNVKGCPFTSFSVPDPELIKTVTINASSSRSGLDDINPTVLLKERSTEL
Nature of the test: COX Fluorescent Inhibitor Screening assay, COX-2. To be noted: FIG. 4B. The format is biochemical. The protocol: Compounds were assayed for cyclooxygenase (COX) inhibition using the COX Fluorescent Inhibitor Screening Kit from Cayman Chemical (Item #: 700100). Briefly, COX enzyme (ovine COX-1 or human recombinant COX-2) diluted in 1× reaction buffer is incubated with the compound or DMSO control for 20 min at 25° C. in a half-area 96-well black microplate. Background wells are also included that contained no enzyme. Added to each well were heme B, to ensure enzyme activity, and 10-acetyl-3,7-dihydroxyphenoxazine (ADHP) assay reagent. After the 20 min incubation, arachidonic acid (AA) substrate was added to all wells. As shown by the schematic diagram below, active COX enzyme converts AA to hydroperoxy endoperoxide (PGG2). Catalyzed by the secondary peroxidase activity of COX, ADHP can react with PGG2 to form a highly fluorescent compound, resorufin. Fluorescence was measured with a […] excitation wavelength and a 585-595 nm emission wavelength. Decreased fluorescence relative to the DMSO control indicates COX inhibition. See, also, Piazza G A, Keeton A B, Tinsley H N, Gary B D, Whitt J D, Mathew B, Thaiparambil J, Coward L, Gorman, G, Li Y, Sani B, Hobrath J V, Maxuitenko Y Y and Reynolds R C. […] Cancer Prevention Research 2009; 2: 572-580.

The target of the next test is PDE10 (Homo sapiens, UniProt Q9Y233). In words: IMAP fluorescence polarization PDE assay, PDE10. It counts as biochemical. To be noted: FIG. 5B. On the procedure:
as §1

Test [2] concerns rat intact hearts (Langendorff model). In words: Langendorff model of ischemia/reperfusion injury, LDH release. It counts as in vivo, Sprague Dawley rats. On the procedure:
The ex vivo Langendorff procedure is a well-established preparation used to investigate heart physiology, ischemia/reperfusion injury, and other cardiovascular insults (23, 24; also see, e.g., reference 22). Sprague Dawley rats (275-325g) were administered either no drug or Compound 9 daily (at 0.7 mg/kg) for a total of two days (two administrations in total). Forty-eight hours after the start of drug exposure, hearts were removed and exposed to 45 min no flow ischemia and 2 h reperfusion in the Langendorff model (hearts were first equilibrated in KHB buffer for 10 min and then subjected to 45 min ischemia followed by 2 h reperfusion with KHB buffer), in the absence of drug.
In LDH and TTC assays for the Langendorff Preparation, coronary effluent samples (500 μL) from the Langendorff preparation were obtained upon attachment of excised heart, every 15 min before ischemia, immediately after 45 min ischemia, and at 15 min intervals during reperfusion. LDH was measured (using a Cytotox-96 nonradioactive cytotoxicity assay kit (Promega), with the absorbance read at 490 nm). Immediately upon completion, the heart was sliced into 2-mm cross-sectional pieces and slices were incubated for 30 min with 1% 2,3,5-triphenyl tetrazolium chloride (TTC) stain in Krebs-Henseleit buffer (KHB) (pH=7.4) at 37° C. to distinguish between viable (red) and nonviable (white) tissue. Tissue slices were stored overnight in 10% formaldehyde before measurement of infarct size using NIH-Image J software.
The protective (preconditioning) effect of Compound 9 was evaluated in an art-recognized Langendorff model of ischemia/reperfusion injury. Compound 9 was administered via i.p. injection to test animals daily for two days, and animal hearts were then removed for performance of the Langendorff procedure (described above and known in the art).

The next test deals with PDE5 (Homo sapiens, UniProt O76074). In words: IMAP fluorescence polarization PDE assay, PDE5. As to conditions: FIG. 5A. It counts as biochemical. On the procedure:
as §1

Setting [3] is: 0.7 mg/kg i.p. daily for 48 h, FIG. 9.

Chain of PDE10 (Q9Y233 whole entry): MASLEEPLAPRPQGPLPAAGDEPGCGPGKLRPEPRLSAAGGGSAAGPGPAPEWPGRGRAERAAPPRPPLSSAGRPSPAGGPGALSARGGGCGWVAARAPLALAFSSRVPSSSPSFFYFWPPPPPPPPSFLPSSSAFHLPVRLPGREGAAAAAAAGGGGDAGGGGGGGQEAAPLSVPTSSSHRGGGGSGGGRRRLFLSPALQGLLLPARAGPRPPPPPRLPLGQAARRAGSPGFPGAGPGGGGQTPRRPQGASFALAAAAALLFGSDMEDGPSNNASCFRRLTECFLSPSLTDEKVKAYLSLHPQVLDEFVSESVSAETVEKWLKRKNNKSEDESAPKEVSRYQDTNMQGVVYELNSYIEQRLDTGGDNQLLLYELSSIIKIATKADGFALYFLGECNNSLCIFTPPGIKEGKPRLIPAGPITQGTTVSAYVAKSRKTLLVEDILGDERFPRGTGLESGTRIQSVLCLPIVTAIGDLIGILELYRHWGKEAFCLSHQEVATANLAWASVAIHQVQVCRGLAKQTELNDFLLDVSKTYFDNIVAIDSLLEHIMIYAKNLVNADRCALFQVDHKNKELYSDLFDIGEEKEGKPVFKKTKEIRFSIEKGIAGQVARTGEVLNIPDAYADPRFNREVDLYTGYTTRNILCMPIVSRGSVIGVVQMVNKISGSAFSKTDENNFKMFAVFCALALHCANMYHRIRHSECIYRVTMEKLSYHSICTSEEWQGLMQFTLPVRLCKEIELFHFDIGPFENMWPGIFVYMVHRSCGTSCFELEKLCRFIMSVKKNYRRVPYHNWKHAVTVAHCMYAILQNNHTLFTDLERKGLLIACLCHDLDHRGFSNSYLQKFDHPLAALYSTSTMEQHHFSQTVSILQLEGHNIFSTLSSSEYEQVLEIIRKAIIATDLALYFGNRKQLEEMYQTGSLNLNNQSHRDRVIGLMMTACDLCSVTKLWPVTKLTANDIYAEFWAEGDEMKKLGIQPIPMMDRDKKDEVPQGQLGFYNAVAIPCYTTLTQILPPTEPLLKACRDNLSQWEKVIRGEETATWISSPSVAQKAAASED

Take `COc1cc2c(cc1OC)/C(=C\c1cc(OC)c(OC)c(OC)c1)C(C)=C2CC(=O)O` [Compound 9, (Z)-2-(5,6-dimethoxy-2-methyl-1-(3,4,5-trimethoxybenzylidene)-1H-inden-3-yl)acetic acid]: in test [1], the “Inhibition of other cGMP PDE isozymes, including PDE 1, 2, 3 and 11” value is on record as “lower inhibitory effects”; the PDE isozyme selectivity result is “most active against PDE5 and 10”. For the same molecule, the “COX-2 inhibition: fold less potent than celecoxib” value at human recombinant COX-2 is given as “approximately 1000 ×”. Besides, the IC50 at PDE10 was about 7 µM. Further, in test [2] (setting [3]), the “Protective effect during the 45 min ischemia phase” value is recorded as “robust protective effect” and the “Protective effect during the 2 h reperfusion phase” value is listed as “robust protective effect”. Further, in test [2] (2 h reperfusion, 0.7 mg/kg daily for 48 h, FIG. 7), the “LDH levels vs no drug control” value is listed as “decrease in LDH levels”. In test [2] (after 45 min no flow ischemia, 0.7 mg/kg daily for 48 h, FIG. 7), the “Levels of LDH released vs no drug” value is “significantly lower”. On PDE5, the IC50 is about 32 µM.
